Test results reported in patent US11077090B2, “Compounds and compositions and uses thereof” (Sunovion Pharmaceuticals Inc., priority 2016, dated 2021).
Counter-ions that a name gives are not always drawn. Like-named read-outs stand apart in the source and are kept apart here.

System: compound-treated mice
Experiment: Neuropharmacological assay (SmartCube): behavioral activity signature and minimal effective dose
Assay type: in vivo
Conditions: for minimal effective dose: Mus musculus, ip; for AD: ADHD (probability of activity signature) / AG: analgesic (probability of activity signature) / AX: anxiolytic (probability of activity signature) / CE: cognitive enhancer (probability of activity signature) / DP: anti-depressant (probability of activity signature) / MS: mood stabilizer (probability of activity signature) / PS: anti-psychotic (probability of activity signature) / SD: sedative hypnotic (probability of activity signature) / UN: uncharacterized CNS activity (probability of activity signature): i.p. 15 min before test, most efficacious dose(s)
In short: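 Video-recorded behavior is compared algorithmically against a reference-compound database, yielding class probabilities (best dose reported). Compounds given i.p. in NMP/PEG/propylene glycol 15 min pre-test at 3 doses; potency as MED, the dose (mpk, range usually 0.3–30) reaching ≥50% total activity.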

[1] = MED = dose having 50% or more total activity, read-out: Potency: minimal effective dose (MED)
[2] = MED = dose having 50% or more total activity, read-out: Potency: minimal effective dose (MED), binned

| Structure (SMILES) | minimal effective dose [1] [mg/kg] | AD: ADHD (probability of activity signature) | AG: analgesic (probability of activity signature) | AX: anxiolytic (probability of activity signature) | CE: cognitive enhancer (probability of activity signature) | DP: anti-depressant (probability of activity signature) | MS: mood stabilizer (probability of activity signature) | PS: anti-psychotic (probability of activity signature) | SD: sedative hypnotic (probability of activity signature) | UN: uncharacterized CNS activity (probability of activity signature) | minimal effective dose [2] [mg/kg] | Potency: minimal effective dose (MED) (MED = dose having 50% or more total activity) |
| --- | --- | --- | --- | --- | --- | --- | --- | --- | --- | --- | --- | --- |
| Cc1ccc2c(c1)[C@H](N)CO[C@@H]2C.Cl [Example 106] | 3 to 10 | + (LOQ ≤ + <5%) | + (LOQ ≤ + <5%) | ++ (5% ≤ ++ <25%) | ++ (5% ≤ ++ <25%) | + (LOQ ≤ + <5%) | + (LOQ ≤ + <5%) | ++ (5% ≤ ++ <25%) | ++ (5% ≤ ++ <25%) | ++++ (50% ≤ ++++) |  |  |
| CC(C)[C@@H]1OCc2ccccc2[C@@H]1N (relative stereo) [Example 256, cis-3-Isopropylisochroman-4-amine hydrochloride] |  | ++ (5% ≤ ++ <25%) | + (LOQ ≤ + <5%) | ++ (5% ≤ ++ <25%) | + (LOQ ≤ + <5%) | + (LOQ ≤ + <5%) | ++ (5% ≤ ++ <25%) | +++ (25% ≤ +++ <50%) | ++ (5% ≤ ++ <25%) | ++ (5% ≤ ++ <25%) | 3 to 10 |  |
| Cc1ccc2c(c1C)C(N)COC2.Cl (centres unmarked) [Example 42, 5,6-Dimethylisochroman-4-amine hydrochloride] | < 3 | + (LOQ ≤ + <5%) | +++ (25% ≤ +++ <50%) | ++ (5% ≤ ++ <25%) | ++ (5% ≤ ++ <25%) | ++ (5% ≤ ++ <25%) | + (LOQ ≤ + <5%) | +++ (25% ≤ +++ <50%) | ++ (5% ≤ ++ <25%) | +++ (25% ≤ +++ <50%) |  |  |
| CN[C@@H]1CO[C@@H](C)c2ccccc21 (relative stereo) [Example 236, trans-N,1-dimethylisochroman-4-amine hydrochloride] |  | + (LOQ ≤ + <5%) | ++ (5% ≤ ++ <25%) | ++ (5% ≤ ++ <25%) | + (LOQ ≤ + <5%) | ++ (5% ≤ ++ <25%) | + (LOQ ≤ + <5%) | ++ (5% ≤ ++ <25%) | + (LOQ ≤ + <5%) | ++++ (50% ≤ ++++) | 3 to 10 |  |
| C[C@@H]1OCc2ccc3ccccc3c2[C@@H]1N.Cl (single isomer, unassigned) [Example 91] | 10 to 30 | + (LOQ ≤ + <5%) | ++ (5% ≤ ++ <25%) | + (LOQ ≤ + <5%) | ++ (5% ≤ ++ <25%) | + (LOQ ≤ + <5%) | + (LOQ ≤ + <5%) | ++ (5% ≤ ++ <25%) | ++ (5% ≤ ++ <25%) | +++ (25% ≤ +++ <50%) |  |  |
| CC[C@H]1OCc2ccc(F)cc2[C@H]1N [Example 188] |  | + (LOQ ≤ + <5%) | ++ (5% ≤ ++ <25%) | ++ (5% ≤ ++ <25%) | + (LOQ ≤ + <5%) | ++ (5% ≤ ++ <25%) | + (LOQ ≤ + <5%) | ++ (5% ≤ ++ <25%) | + (LOQ ≤ + <5%) | ++++ (50% ≤ ++++) | < 3 |  |
| C[C@@H]1OC[C@H](N)c2ccccc21.Cl (relative stereo) [Example 104, cis-1-Methylisochroman-4-amine hydrochloride] | 3 to 10 | + (LOQ ≤ + <5%) | ++ (5% ≤ ++ <25%) | ++ (5% ≤ ++ <25%) | ++ (5% ≤ ++ <25%) | ++ (5% ≤ ++ <25%) | + (LOQ ≤ + <5%) | ++ (5% ≤ ++ <25%) | ++ (5% ≤ ++ <25%) | +++ (25% ≤ +++ <50%) |  |  |
| Cc1ccc2c(c1)C(N)C(C)(C)COC2.Cl (centres unmarked) [Example 63, 4,4,7-Trimethyl-1,3,4,5-tetrahydrobenzo[c]oxepin-5-amine hydrochloride] | 10 to 30 | + (LOQ ≤ + <5%) | ++ (5% ≤ ++ <25%) | ++ (5% ≤ ++ <25%) | ++ (5% ≤ ++ <25%) | ++ (5% ≤ ++ <25%) | + (LOQ ≤ + <5%) | + (LOQ ≤ + <5%) | + (LOQ ≤ + <5%) | ++ (5% ≤ ++ <25%) |  |  |
| CN[C@@H]1COCc2ccc(OC)cc21 [Example 139] | 3 to 10 | + (LOQ ≤ + <5%) | ++ (5% ≤ ++ <25%) | ++ (5% ≤ ++ <25%) | ++ (5% ≤ ++ <25%) | ++ (5% ≤ ++ <25%) | + (LOQ ≤ + <5%) | ++ (5% ≤ ++ <25%) | + (LOQ ≤ + <5%) | +++ (25% ≤ +++ <50%) |  |  |
| Cc1cccc2c1[C@@H](C)OC[C@H]2N (single isomer, unassigned) [Example 254] |  | + (LOQ ≤ + <5%) | + (LOQ ≤ + <5%) | + (LOQ ≤ + <5%) | + (LOQ ≤ + <5%) | + (LOQ ≤ + <5%) | + (LOQ ≤ + <5%) | + (LOQ ≤ + <5%) | ++ (5% ≤ ++ <25%) | ++ (5% ≤ ++ <25%) | 3 to 10 |  |
| COc1ccc2c(c1)C(N)COC2.Cl (centres unmarked) [Example 10, 6-Methoxyisochroman-4-amine hydrochloride] | 3 to 10 | + (LOQ ≤ + <5%) | ++ (5% ≤ ++ <25%) | ++ (5% ≤ ++ <25%) | +++ (25% ≤ +++ <50%) | ++ (5% ≤ ++ <25%) | + (LOQ ≤ + <5%) | +++ (25% ≤ +++ <50%) | ++ (5% ≤ ++ <25%) | ++ (5% ≤ ++ <25%) |  |  |
| Cc1ccc2c(c1)C(N)COCC2.Cl (centres unmarked) [Example 34] |  |  |  | +++ (25% ≤ +++ <50%) | ++ (5% ≤ ++ <25%) | + (LOQ ≤ + <5%) |  | ++ (5% ≤ ++ <25%) | ++ (5% ≤ ++ <25%) |  |  | B (>3 to 10 mpk) |
| Cl.NC1COCc2cccc(F)c21 (centres unmarked) [Example 22] | 10 to 30 | + (LOQ ≤ + <5%) | ++ (5% ≤ ++ <25%) | ++ (5% ≤ ++ <25%) | ++ (5% ≤ ++ <25%) | ++ (5% ≤ ++ <25%) | + (LOQ ≤ + <5%) | ++ (5% ≤ ++ <25%) | + (LOQ ≤ + <5%) | +++ (25% ≤ +++ <50%) |  |  |
| Cc1ccc2c(c1C)C(N)CCOC2.Cl (centres unmarked) [Example 43, 6,7-Dimethyl-1,3,4,5-tetrahydrobenzo [c]oxepin-5-amine hydrochloride] | 10 to 30 | + (LOQ ≤ + <5%) | ++ (5% ≤ ++ <25%) | +++ (25% ≤ +++ <50%) | ++ (5% ≤ ++ <25%) | + (LOQ ≤ + <5%) | + (LOQ ≤ + <5%) | ++ (5% ≤ ++ <25%) | ++ (5% ≤ ++ <25%) | + (LOQ ≤ + <5%) |  |  |
| CCCN[C@@H]1c2ccccc2CO[C@H]1C.Cl [Example 264] |  | ++ (5% ≤ ++ <25%) | + (LOQ ≤ + <5%) | ++ (5% ≤ ++ <25%) | + (LOQ ≤ + <5%) | ++ (5% ≤ ++ <25%) | ++ (5% ≤ ++ <25%) | +++ (25% ≤ +++ <50%) | ++ (5% ≤ ++ <25%) | + (LOQ ≤ + <5%) | 3 to 10 |  |
